# Results: patent publication US20220386606A1, “SPECIFICALLY SUBSTITUTED 3-PHENYL-5-SPIROCYCLOPENTYL-3-PYRROLIN-2-ONES AND THEIR USE AS HERBICIDES” (Bayer Aktiengesellschaft, priority 2019, published 2022)
# Legend:
# [1] = system: AVEFA; test: Post-emergence herbicidal action against AVEFA; assay type: in vivo, Avena fatua; details: 80 g/ha, visual assessment after about 3 weeks
# How it was run: (§1)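 Plants at the one-leaf stage receive a foliar spray of the formulated compound, with a 600 to 800 l/ha water rate and 0.2% wetting agent. Percent activity is judged by eye after roughly 3 weeks in the greenhouse.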
# [2] = system: HORMU; test: Post-emergence herbicidal action against HORMU; assay type: in vivo, Hordeum murinum; details: 80 g/ha, visual assessment about 3 weeks after treatment vs untreated controls
# Protocol: (§2) Seeds of monocotyledonous and dicotyledonous weed and crop plants are laid out in sandy loam soil in wood-fiber pots, covered with soil and cultivated in a greenhouse under good growth conditions. 2 to 3 weeks after sowing, the test plants are treated at the one-leaf stage. The compounds of the invention, formulated in the form of wettable powders (WP) or as emulsion concentrates (EC), are then sprayed onto the green parts of the plants as aqueous suspension or emulsion at a water application rate equating to 600 to 800 l/ha with addition of 0.2% wetting agent. After the test plants have been left to stand in the greenhouse under optimal growth conditions for about 3 weeks, the action of the preparations is assessed visually in comparison to untreated controls (herbicidal action in percent (%): 100% activity=the plants have died, 0% activity=like control plants).
# [3] = system: ALOMY; test: Post-emergence herbicidal action against ALOMY; assay type: in vivo, Alopecurus myosuroides; details: 80 g/ha, visual assessment after about 3 weeks
# How it was run: as §1
# [4] = system: SETVI; test: Post-emergence herbicidal action against SETVI; assay type: in vivo, Setaria viridis; details: 80 g/ha, visual assessment about 3 weeks after treatment vs untreated controls
# How it was run: as §1
# [5] = system: LOLRI; test: Post-emergence herbicidal action against LOLRI; assay type: in vivo, Lolium rigidum; details: 80 g/ha, visual assessment about 3 weeks after treatment vs untreated controls
# How it was run: as §1
# [6] = system: ECHCG; test: Post-emergence herbicidal action against ECHCG; assay type: in vivo, Echinochloa crus-galli; details: 80 g/ha, visual assessment about 3 weeks after treatment vs untreated controls
# How it was run: as §1
# [7] = system: DIGSA; test: Post-emergence herbicidal action against DIGSA; assay type: in vivo, Digitaria sanguinalis; details: 80 g/ha, visual assessment about 3 weeks after treatment vs untreated controls
# How it was run: as §1
# [8] = system: LOLRI; test: Pre-emergence herbicidal action against LOLRI (Table 8, titled post-emergence at 320 g/ha); assay type: in vivo, Lolium rigidum; details: table stands in the pre-emergence section
# How it was run: (§3)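 Visual percent damage, rated 3 weeks after treatment against untreated plants (0% like control, 100% plants dead). Compounds, as wettable powders or emulsion concentrates, were sprayed pre-emergence onto soil covering seeds sown in sandy loam, at 600 to 800 L/ha water with 0.2% wetting agent; pots kept in greenhouse.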
# [9] = system: DIGSA; test: Pre-emergence herbicidal action against DIGSA; assay type: in vivo, Digitaria sanguinalis; details: 320 g/ha, scored visually after 3 weeks vs untreated controls
# How it was run: as §3
# [10] = system: VERPE; test: Pre-emergence herbicidal action against VERPE; assay type: in vivo, Veronica persica; details: 320 g/ha
# How it was run: as §3
# [11] = system: MATIN; test: Pre-emergence herbicidal action against MATIN; assay type: in vivo; details: 320 g/ha
# How it was run: as §3
# [12] = system: AMARE; test: Pre-emergence herbicidal action against AMARE; assay type: in vivo, Amaranthus retroflexus; details: 320 g/ha
# How it was run: as §3
# [13] = system: POLCO; test: Pre-emergence herbicidal action against POLCO; assay type: in vivo, Polygonum convolvulus; details: 320 g/ha
# Source text: Seeds of monocotyledonous and dicotyledonous weed plants and crop plants are laid out in sandy loam soil in wood-fiber pots and covered with soil. The compounds of the invention, formulated in the form of wettable powders (WP) or as emulsion concentrates (EC), are then applied to the surface of the covering soil as aqueous suspension or emulsion at a water application rate equating to 600 to 800 L/ha with addition of 0.2% wetting agent.
# After the treatment, the pots are placed in a greenhouse and kept under good growth conditions for the trial plants. The damage to the test plants is scored visually after a test period of 3 weeks by comparison with untreated controls (herbicidal activity in percent (%): 100% activity=the plants have died, 0% activity=like control plants).
# [14] = system: AVEFA; test: Pre-emergence herbicidal action against AVEFA; assay type: in vivo, Avena fatua; details: 320 g/ha, scored visually after 3 weeks vs untreated controls
# How it was run: as §3
# [15] = system: VIOTR; test: Pre-emergence herbicidal action against VIOTR; assay type: in vivo, Viola tricolor; details: 320 g/ha
# How it was run: as §3
# [16] = system: ECHCG; test: Pre-emergence herbicidal action against ECHCG; assay type: in vivo, Echinochloa crus-galli; details: 320 g/ha, scored visually after 3 weeks vs untreated controls
# How it was run: as §3
# [17] = system: ALOMY; test: Pre-emergence herbicidal action against ALOMY; assay type: in vivo, Alopecurus myosuroides; details: 320 g/ha, scored visually after 3 weeks vs untreated controls
# How it was run: as §3
# [18] = system: SETVI; test: Pre-emergence herbicidal action against SETVI; assay type: in vivo, Setaria viridis; details: 320 g/ha, scored visually after 3 weeks vs untreated controls
# How it was run: as §3
# [19] = system: ABUTH; test: Post-emergence herbicidal action against ABUTH; assay type: in vivo, Abutylon threophrasti; details: 80 g/ha, visual assessment about 3 weeks after treatment vs untreated controls
# Protocol: as §2
Compound,Post-emergence action against AVEFA in % [1],Post-emergence action against HORMU in % [2],Post-emergence action against ALOMY in % [3],Post-emergence action against SETVI in % [4],Post-emergence action against LOLRI in % [5],Post-emergence action against ECHCG in % [6],Post-emergence action against DIGSA in % [7],Pre-emergence herbicidal action against LOLRI in % [8],Pre-emergence action against DIGSA in % [9],Pre-emergence action against VERPE in % [10],Pre-emergence action against MATIN in % [11],Pre-emergence action against AMARE in % [12],Pre-emergence action against POLCO in % [13],Pre-emergence action against AVEFA in % [14],Pre-emergence action against VIOTR in % [15],Pre-emergence action against ECHCG in % [16],Pre-emergence action against ALOMY in % [17],Pre-emergence action against SETVI in % [18],Post-emergence action against ABUTH in % [19]
CC#Cc1cc(Cl)c(C2=C(OC(=O)OCC)C3(CCC(COC)C3)NC2=O)c(CC)c1 (stereo not drawn) [Example P-15],100%,100%,100%,100%,100%,100%,100%,–,–,–,–,–,–,–,–,–,–,–,–
CC#Cc1cc(C)c(C2=C(OC(=O)OCC)C3(CCC(COCC)C3)NC2=O)c(Cl)c1 (stereo not drawn) [Example P-09],100%,100%,100%,100%,100%,100%,100%,–,–,–,–,–,–,–,–,–,–,–,–
CC#Cc1cc(C)c(C2=C(O)C3(CCC(COCCOC)C3)NC2=O)c(Cl)c1 (stereo not drawn) [Example I-51],100%,–,100%,100%,90%,100%,100%,100%,100%,100%,100%,100%,80%,100%,100%,100%,100%,100%,–
C#Cc1cc(Cl)c(C2=C(O)C3(CCC(COCC)C3)NC2=O)c(OC)c1 (stereo not drawn) [Example I-08],90%,80%,80%,90%,90%,–,80%,–,–,–,–,–,–,–,–,–,–,–,–
CC#Cc1cc(C)c(C2=C(OC(=O)C(C)C)C3(CCC(COC)C3)NC2=O)c(Br)c1 (stereo not drawn) [Example P-33],90%,–,100%,100%,100%,–,100%,100%,100%,80%,–,100%,100%,100%,100%,100%,100%,100%,80%
CC#Cc1cc(C)c(C2=C(OC(=O)C(C)C)C3(CCC(COCC)C3)NC2=O)c(OC)c1 (stereo not drawn) [Example P-60],100%,–,100%,100%,100%,100%,90%,100%,100%,80%,90%,100%,80%,100%,100%,100%,100%,100%,–
C#CCOCC1CCC2(C1)NC(=O)C(c1c(C)cc(C#CC)cc1Cl)=C2O (stereo not drawn) [Example I-79],90%,–,90%,100%,100%,100%,100%,100%,100%,80%,90%,100%,90%,100%,100%,100%,100%,100%,–
